Experimental data published in patent US20100210692A1, “METHODS OF TREATMENT USING SIRT MODULATORS AND COMPOSITIONS CONTAINING SIRT1 MODULATORS” (priority 2007, published 2010).
“Also recorded” adds a separate entry of the source.

Assays:
[1] = test system: Fibroblasts that ectopically express PPARγ; assay: qPCR of FGF21 mRNA in fibroblasts that ectopically express PPARγ (Example 4); assay type: cell-based; conditions: 5 μM compound with 5 μM troglitazone, day 4 to 6
Method: Cells were harvested on day 6 for qPCR measurement of FGF21 mRNA. Three separate dishes of cells were analyzed for each condition.

SIRT1 [2] = target: T1, SIRT1 (Homo sapiens, UniProt Q96EB6); assay: SIRT1 p53-382 IC50 assay (Table 1); assay type: biochemical
T1 sequence (Q96EB6 1-747): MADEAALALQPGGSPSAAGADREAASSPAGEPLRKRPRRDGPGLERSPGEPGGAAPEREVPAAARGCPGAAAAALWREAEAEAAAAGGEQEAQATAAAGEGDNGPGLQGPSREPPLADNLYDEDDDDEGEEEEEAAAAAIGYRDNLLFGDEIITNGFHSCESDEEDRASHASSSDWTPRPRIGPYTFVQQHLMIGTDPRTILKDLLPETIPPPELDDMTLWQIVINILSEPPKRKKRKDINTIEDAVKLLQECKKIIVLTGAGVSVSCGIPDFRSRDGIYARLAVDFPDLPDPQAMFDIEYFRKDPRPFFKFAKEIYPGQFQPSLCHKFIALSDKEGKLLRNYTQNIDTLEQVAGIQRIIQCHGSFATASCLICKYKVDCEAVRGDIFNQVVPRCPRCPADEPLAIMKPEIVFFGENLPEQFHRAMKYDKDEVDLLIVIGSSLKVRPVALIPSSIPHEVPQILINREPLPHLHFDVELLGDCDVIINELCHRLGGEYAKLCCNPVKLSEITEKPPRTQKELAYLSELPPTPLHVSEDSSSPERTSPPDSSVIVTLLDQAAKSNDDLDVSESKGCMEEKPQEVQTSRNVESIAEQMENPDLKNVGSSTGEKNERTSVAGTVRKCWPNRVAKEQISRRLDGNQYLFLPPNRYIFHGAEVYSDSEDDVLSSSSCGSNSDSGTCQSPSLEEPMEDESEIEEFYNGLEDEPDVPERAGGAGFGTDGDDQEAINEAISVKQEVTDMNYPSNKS

SIRT1 [3] = target: T1, SIRT1; assay: Activity of enantiomers against the SIRT1 enzyme; assay type: biochemical; conditions: comparison of enantiomers
[4] = test system: Swiss 3T3 fibroblasts expressing wild type PPARγ; assay: RT-PCR of mRNAs in Swiss 3T3 fibroblasts expressing wild type PPARγ (FIG. 5); assay type: cell-based, mouse; conditions: troglitazone 5 μM or T0070907 10 μM with differentiation cocktail, day 6
Method: Swiss 3T3 fibroblasts expressing wild type PPARγ or a control vector were induced to differentiate by exposure to a differentiation cocktail of dexamethasone, isobutylmethylxanthine and insulin in 10% FBS as outlined in Materials and Methods (Con). […] At day 6, cells were harvested for analysis of individual mRNAs as indicated using RT-PCR.
Cell Culture: Murine 3T3-L1 preadipocytes were cultured and maintained in DMEM supplemented with 0% calf serum. Differentiation was induced by exposure of postconfluent cells to DMEM containing 10% MS, 1 μM dexamethasone (DEX), 0.5 mM 3-isobutyl-1-methylxanthine (MIX) and 1,61 μM insulin. After 48 hours, the medium was changed to DMEM containing 10% FBS every two days.
A Analysis: Total RNA was isolated using TRIzol following the manufacturer's instructions and was subjected to RT-PCR analysis as outlined in the Promega product manual as previously described (31). […] In the case of analyzing Ero1-Lα mRNA, primers were the same as those listed above for generating the Ero1-Lα pRevTRE expression vector.

Swiss WT-PPARγ cells = assay: RT-PCR of Group 1 and Group 2 genes in Swiss WT-PPARγ cells; assay type: cell-based, mouse; conditions: for expression of C/EBPα and adiponectin in response to endogenous ligands (FIG. 14B) / expression of the Group 2 genes in response to endogenous ligands (FIG. 14B): antagonist 10 μM, day 5
Method: (§1) Cells were then harvested for extraction of RNA followed by RT-PCR analysis of FGF21 and FABP4/aP2 mRNAs as described in materials and methods. (B). […] (C). Reporter assays were also performed in Swiss fibroblasts stably expressing a WT-PPARγ or a pBabe-puro empty vector (control cells) following transfection of the FGF21 promoter reporter plasmids along with the renilla control vector in the presence or absence of GW1929. In both assays (B) and (C), a set of cells were also transfected with a reporter plasmid consisting of the PPRE from the aP2 gene upstream of luciferase within pGL3 (DR-1). Transcriptional activity of each of the fragments of the FGF21 gene promoter is shown as the ratio of luciferase to renilla activity (Luc/Ren) as described in materials and methods.
(§2) Cells were refed every 2 days.

3T3-L1 adipocytes [5] = assay: Western blot of adiponectin secretion and intracellular proteins in 3T3-L1 adipocytes; assay type: cell-based, Murine; conditions: for secretion of the HMW adiponectin complexes: non-reducing SDS-PAGE
Method: Cell Culture: Murine 3T3-L1 preadipocytes were cultured and maintained in DMEM supplemented with […]. Differentiation was induced by exposure of postconfluent cells to DMEM containing 10% […], 1 μM dexamethasone (DEX), 0.5 mM 3-isobutyl-1-methylxanthine (MIX) and […] insulin. After 48 hours, the medium was changed to DMEM containing 10% FBS every two days. Human embryonic kidney (HEK)-293T cells were cultured in DMEM with 10% FBS; The Swiss F-PPARγ cells were differentiated as recently described (Wang et al, 2006; accompanying paper).
Western Blot Analysis of Proteins: Isolation and western blot analysis of total cell proteins was performed as outlined previously (21). The antibodies employed in the analysis were as follows: Mouse polyclonal anti-adiponectin antibody (Affinity BioREagents, Golden, Colo.), polyclonal anti-SIRT1 antibody (Upstate), anti-PPARγ and anti-C/EBPα (Santa Cruz Biotechnology), anti-Ero1 polyclonal antibody (Abnova Co., Taiwan, China) and polyclonal anti-aP2 serum (Dr. David Benlohr at University of Minnesota). For analysis of secreted proteins, aliquots of the culture medium were centrifuged at low speed to remove debris and then subjected to standard SDS-PAGE as above or non-reducing SDS-PAGE as outlined by Kadowaki and collaborators (37). Prior to electrophoresis, the samples were mixed with 4× non-reducing protein sample buffer (200 mM, […], 8% SDS, 0.4% bromophenot blue, 40% glycerol) and incubated at room temperature for one hour. Care was taken to ensure that all components of the SDs PAGE system were completely free of reducing agents.

Swiss EF-PPARγ cells = assay: RT-PCR of Group 1 and Group 2 genes in Swiss EF-PPARγ / F-PPARγ cells
Method: In (A), (B) and (C), total RNA of cells was isolated at day 5 using Trizol Reagent (Invitrogen) and subjected to RT-PCR analysis of the indicated Group 1 and Group 2 genes as described in materials and methods.
Cell Culture: The Swiss fibroblast cell lines expressing wild type (WT.) and mutant forms of PPARγ (E, EF, F, DD) generated as previously described (22) and murine 3T3-L1 preadipocytes were grown in Dulbecco's modified Eagle's medium (DMEM) containing 10% FBS (fibroblasts) or 10% calf serum (preadipocytes) until confluent and were then maintained in the same medium for an additional 2 days. […] Cells were refed every 2 days.
Analysis of RNA: Total cellular RNA was prepared using TRIzol reagent (InVitrogen) according to the manufacturer's instructions. As were made from equivalent amounts of total RNA by using Reverse Transcription System (Promega) as described previously (33).

[6] = test system: mouse FGF21 promotor constructs; assay: FGF21 promoter luciferase reporter gene assay in Swiss fibroblasts; assay type: cell-based; conditions: 1 μM GW1929, 48 hours
Method: as §1

[7] = test system: Swiss F372A PPARγ cells (F-Ero1); assay: Adiponectin secretion in Swiss F372A PPARγ cells with ectopic Ero1-Lα (FIG. 9); assay type: cell-based, mouse; conditions: F-Ero1 cells + tetracycline, 50 μM resveratrol for 2 days from day 4
3T3-L1 adipocytes [8] = assay: RT-PCR of Group 1 and Group 2 genes in differentiating 3T3-L1 cells (FIG. 17); assay type: cell-based, murine; conditions: SIRT1 knockdown 3T3-L1 cells, day 4, 2 days exposure
Source text: Untreated and treated cells were harvested for analysis of select mRNAs using RT-PCR as described in materials and methods. […] (C). Model proposing interplay between PPARγ and SIRT1 in controlling adipocyte function, PPARγ functions to regulate adipocyte formation and function. Endogenous ligands activate PPARγ requiring participation of both helix 7 and 12 to orchestrate adipogenesis. In mature adipocytes, SIRT1 mediates hormonal and nutrient control of select PPARγ target genes that are involved in controlling metabolism by suppressing the action of endogenous ligands. The thiazolidinedione (TZD) family of synthetic PPARγ ligands can overcome the suppressive effects of SIRT1 acting through helix 7 as well as helix 12 to induce the metabolic genes.
as §2

Ero1-Lα = assay: Transient knockdown of Ero1-Lα in 3T3-L1 adipocytes; assay type: cell-based, Murine; conditions: 100 nM RNAi duplex, transfected day 4 and 5, harvested day 6
Method: 3T3-L1 preadipocytes were cultured in 60 mm dishes and induced to differentiate as described above. On day 4, the differentiation-inducing medium was replaced with 2.5 mL, fresh DMEM containing 10% FBS. 15 μL TransIT-TKO Transfection Reagent (Mirus Bio Cooperadon. Madison, Wis.) was diluted into 250 μL serum free DMEM and incubated at room temperature for 20 minutes, at which time 100 nM Ero1-Lα RNAi duplex or control duplex […]) was added and mixed thoroughly. After incubation at room temperature for another 20 minutes, the resulting TranIT-TKO/RNAi mixture was gently mixed into the adipocyte cultures. The next day, the medium was changed to 2.5 mL flesh DMEM containing 10% FBS and the transfection was repeated as on day 4. On day 6, the total cellular proteins were harvested and subjected to Western blot analysis. The modified synthetic Ero1-Lα RNAi duplexes (Stealth™ siRNA) were from Invitrogen Life Technologies. The sequences are as follows:
Western Blot Analysis of Proteins: Isolation and western blot analysis of total cell proteins was performed as outlined previously (21). […]

[9] = control and SIRT1 knock down 3T3-L1 cells, T0070907 10 μM (FIG. 6D)
[10] = troglitazone 5 μM or T0070907 10 μM, 3 days
[11] = resveratrol 50 μM or nicotinamide 5 mM, 2 days
[12] = resveratrol 50 μM or nicotinamide 5 mM, 2 days, reducing SDS-PAGE

NC(=O)C1CCCCc2c1[nH]c1ccc(Cl)cc21 (racemic) [Compound E2]
FGF21 expression induced by troglitazone (FIG. 20) [1]: potentiate the activity of troglitazone in inducing FGF21 expression

Cc1ccc2[nH]c3c(c2c1)CCCC3C(N)=O (stereo not drawn) [Compound 4, 6-Methyl-2,3,4,9-tetrahydro-1H-carbazole-1-carboxylic acid amide]
IC50 (SIRT1 [2]): < 1000 nM

NC(=O)C1CCCc2c1[nH]c1ccc(Cl)cc21 (stereo not drawn) [Compound E1]
activity against the SIRT1 enzyme (SIRT1 [3]): inactive isomer

NC(=O)C1CCCc2c1[nH]c1ccc(Cl)cc21 (stereo not drawn) [Compound E3]
FGF21 expression induced by troglitazone (FIG. 20) [1]: potentiate the activity of troglitazone in inducing FGF21 expression
activity against the SIRT1 enzyme (SIRT1 [3]): active isomer

O=C(Nc1ccncc1)c1cc([N+](=O)[O-])ccc1Cl [Compound T0070907]
Ero1-Lα mRNA expression [4]: attenuates Ero1-Lα expression
expression of C/EBPα and adiponectin in response to endogenous ligands (FIG. 14B) (Swiss WT-PPARγ cells): moderately attenuate
expression of the Group 2 genes in response to endogenous ligands (FIG. 14B) (Swiss WT-PPARγ cells): almost completely block expression of the Group 2 genes; also recorded: the most potent
Ero1-Lα expression (3T3-L1 adipocytes [5]; [9]): inhibits Ero1-Lα expression
adiponectin secretion (3T3-L1 adipocytes [5]; [9]): suppresses adiponectin secretion
amount of secreted HMW adiponectin (3T3-L1 adipocytes [5]; [10]): has the opposite effect
secretion of adipsin (3T3-L1 adipocytes [5]; [10]): has the opposite effect

CN(CCOc1ccc(C[C@H](Nc2ccccc2C(=O)c2ccccc2)C(=O)O)cc1)c1ccccn1 [GW1929]
expression of select Group 1 genes (FIG. 14A) (Swiss EF-PPARγ cells): capable of inducing expression of the Group 2 genes as well as Group 1 genes
transcriptional activity of the 500 bp fragment of the FGF21 gene ([6]; Swiss cells stably expressing WT-PPARγ): enhanced many fold
luciferase activity of FGF21 gene fragments (FIG. 15B) ([6]; Swiss fibroblasts co-transfected with PPARγ expression plasmid): enhanced even further
luciferase activity of FGF21 gene fragments (FIG. 15B) ([6]; control Swiss fibroblasts without PPARγ plasmid): has no affect on this activity

O=C(Nc1ccccc1)c1cc([N+](=O)[O-])ccc1Cl [GW9662]
expression of C/EBPα and adiponectin in response to endogenous ligands (FIG. 14B) (Swiss WT-PPARγ cells): moderately attenuate
expression of the Group 2 genes in response to endogenous ligands (FIG. 14B) (Swiss WT-PPARγ cells): almost completely block expression of the Group 2 genes

C[C@@H]1C[C@@H]([C@H](O)CC2CC(=O)NC(=O)C2)C(=O)[C@@H](C)C1 [cycloheximide]
FGF21 mRNA expression (FIG. 15A) (Swiss WT-PPARγ cells; day 5 cells, troglitazone 5 μM or cycloheximide 5 μg/ml for 4, 6 or 8 hrs): induced simply due to exposure to cycloheximide

O=C[C@H](O)[C@@H](O)[C@H](O)[C@H](O)CO [glucose]
secretion of HMW forms of adiponectin (3T3-L1 adipocytes [5]; glucose or 20 mM lactate, non-reducing SDS-PAGE without heat): significant increase in the appearance of the HMW species in the media
SIRT1 expression (3T3-L1 adipocytes [5]; increase in glucose concentration, 72 hrs): significant decrease of SIRT1 expression
amount of adiponectin secreted into the medium (Ext) (3T3-L1 adipocytes [5]; increasing concentrations of glucose, 72 hrs, reducing SDS-PAGE): dramatically increases the amount of adiponectin secreted into the medium

NC(=O)c1cccnc1 [nicotinamide]
secretion of adipsin (3T3-L1 adipocytes [5]; [11]): has no effect on adipsin
secretion of the HMW adiponectin complexes (3T3-L1 adipocytes [5]; [11]): enhances
secretion of adiponectin (Ext) (3T3-L1 adipocytes [5]; [12]): enhancing secretion of adiponectin

Oc1ccc(C=Cc2cc(O)cc(O)c2)cc1 [resveratrol]
secretion of adiponectin [7]: inhibits secretion of adiponectin
secretion of adipsin (3T3-L1 adipocytes [5]; [11]): without affecting secretion of adipsin
secretion of the HMW adiponectin complexes (3T3-L1 adipocytes [5]; [11]): decreases
secretion of adiponectin (Ext) (3T3-L1 adipocytes [5]; [12]): reduces the secretion of adiponectin

Cc1c(C)c2c(c(C)c1O)CCC(C)(COc1ccc(CC3SC(=O)NC3=O)cc1)O2 (stereo not drawn) [troglitazone]
doses of troglitazone inducing C/EBPα, adiponectin and FABP4/aP2 (FIG. 14C) (Swiss EF-PPARγ cells; EF-PPARγ cells, 5 days): 250 to 500 nM
dose of troglitazone inducing FGF21 and Egln1 (FIG. 17B) (3T3-L1 adipocytes [8]): 250 nM

OCCS [β-mercaptoethanol]
secretion of adiponectin (3T3-L1 adipocytes [5]; β-mercaptoethanol treatment, preliminary data, not shown): significantly enhances the secretion of adiponectin

GGGCUCUCUCCAAAGUGCUUCCAUU [siRNA #3]
attenuation of Ero1-Lα expression (Ero1-Lα): the most effective
